Experimental data as given in ChEMBL document CHEMBL5291721, “A preclinical secondary pharmacology resource illuminates target-adverse drug reaction associations of marketed drugs” (Nat Commun, 2023).

What was measured:
Adenosine receptor A2a = Adenosine receptor A2a (Homo sapiens, UniProt P29274)
[1] = target: Beta-1 adrenergic receptor (Homo sapiens, UniProt P08588); type: functional
[2] = target: Glutamate receptor ionotropic, NMDA 1 (Rattus norvegicus, UniProt P35439)
[3] = target: cGMP-inhibited 3',5'-cyclic phosphodiesterase 3A (Homo sapiens, UniProt Q14432); type: functional
cGMP-inhibited 3',5'-cyclic phosphodiesterase 3A, sequence (Q14432 whole entry): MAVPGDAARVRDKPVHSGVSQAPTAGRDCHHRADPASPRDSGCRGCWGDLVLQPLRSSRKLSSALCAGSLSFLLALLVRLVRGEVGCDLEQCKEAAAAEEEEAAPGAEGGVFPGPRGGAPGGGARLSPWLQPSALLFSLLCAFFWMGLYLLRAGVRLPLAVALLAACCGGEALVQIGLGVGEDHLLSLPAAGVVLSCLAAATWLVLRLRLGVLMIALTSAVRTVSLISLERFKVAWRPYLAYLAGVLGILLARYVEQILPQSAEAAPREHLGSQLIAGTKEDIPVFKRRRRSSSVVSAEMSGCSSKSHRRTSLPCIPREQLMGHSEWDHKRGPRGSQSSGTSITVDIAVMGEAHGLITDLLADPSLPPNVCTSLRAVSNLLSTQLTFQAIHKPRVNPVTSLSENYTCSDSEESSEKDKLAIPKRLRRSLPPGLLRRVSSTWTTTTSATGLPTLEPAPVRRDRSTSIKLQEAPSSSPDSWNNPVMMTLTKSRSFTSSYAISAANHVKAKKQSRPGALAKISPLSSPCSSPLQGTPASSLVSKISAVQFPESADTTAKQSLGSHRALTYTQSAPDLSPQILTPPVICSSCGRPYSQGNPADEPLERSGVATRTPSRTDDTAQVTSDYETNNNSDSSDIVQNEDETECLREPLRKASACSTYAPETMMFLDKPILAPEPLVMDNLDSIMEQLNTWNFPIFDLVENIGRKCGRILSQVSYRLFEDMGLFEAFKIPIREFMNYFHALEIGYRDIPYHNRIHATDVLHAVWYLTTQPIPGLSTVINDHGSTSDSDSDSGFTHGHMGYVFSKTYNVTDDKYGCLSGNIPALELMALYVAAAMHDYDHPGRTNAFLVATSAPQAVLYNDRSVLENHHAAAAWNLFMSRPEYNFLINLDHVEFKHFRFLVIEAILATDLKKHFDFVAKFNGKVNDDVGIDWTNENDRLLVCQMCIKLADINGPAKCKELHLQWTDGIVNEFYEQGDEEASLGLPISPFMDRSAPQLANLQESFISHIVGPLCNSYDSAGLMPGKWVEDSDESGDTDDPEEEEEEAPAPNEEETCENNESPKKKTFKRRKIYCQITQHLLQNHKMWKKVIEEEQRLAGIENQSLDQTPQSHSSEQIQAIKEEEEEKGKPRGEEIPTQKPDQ

[4] = target: Growth hormone secretagogue receptor type 1 (Homo sapiens, UniProt Q92847)
Growth hormone secretagogue receptor type 1, sequence (Q92847 whole entry): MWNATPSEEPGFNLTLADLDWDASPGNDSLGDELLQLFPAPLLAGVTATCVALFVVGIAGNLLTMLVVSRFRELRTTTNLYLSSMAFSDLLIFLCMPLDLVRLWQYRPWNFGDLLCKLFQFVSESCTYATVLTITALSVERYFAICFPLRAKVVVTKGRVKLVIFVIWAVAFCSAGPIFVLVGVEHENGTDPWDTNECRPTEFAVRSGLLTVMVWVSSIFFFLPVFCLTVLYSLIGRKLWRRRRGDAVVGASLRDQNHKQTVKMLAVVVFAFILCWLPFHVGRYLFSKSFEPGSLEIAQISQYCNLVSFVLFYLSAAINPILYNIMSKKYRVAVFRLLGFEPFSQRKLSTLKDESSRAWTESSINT

[5] = target: T1, Type-1 angiotensin II receptor (Homo sapiens, UniProt P30556)
T1 sequence (P30556 whole entry): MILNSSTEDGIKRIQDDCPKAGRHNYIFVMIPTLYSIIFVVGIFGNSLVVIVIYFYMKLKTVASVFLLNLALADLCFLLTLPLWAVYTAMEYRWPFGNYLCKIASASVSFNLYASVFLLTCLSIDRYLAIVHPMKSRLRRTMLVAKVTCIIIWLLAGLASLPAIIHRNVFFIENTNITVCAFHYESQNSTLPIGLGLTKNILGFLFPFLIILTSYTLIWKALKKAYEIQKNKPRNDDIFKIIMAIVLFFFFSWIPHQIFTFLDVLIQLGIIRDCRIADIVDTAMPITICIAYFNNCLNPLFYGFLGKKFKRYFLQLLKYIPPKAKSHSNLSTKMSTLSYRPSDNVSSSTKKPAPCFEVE

[6] = target: T2, Gastrin/cholecystokinin type B receptor (Homo sapiens, UniProt P32239)
T2 sequence (P32239 whole entry): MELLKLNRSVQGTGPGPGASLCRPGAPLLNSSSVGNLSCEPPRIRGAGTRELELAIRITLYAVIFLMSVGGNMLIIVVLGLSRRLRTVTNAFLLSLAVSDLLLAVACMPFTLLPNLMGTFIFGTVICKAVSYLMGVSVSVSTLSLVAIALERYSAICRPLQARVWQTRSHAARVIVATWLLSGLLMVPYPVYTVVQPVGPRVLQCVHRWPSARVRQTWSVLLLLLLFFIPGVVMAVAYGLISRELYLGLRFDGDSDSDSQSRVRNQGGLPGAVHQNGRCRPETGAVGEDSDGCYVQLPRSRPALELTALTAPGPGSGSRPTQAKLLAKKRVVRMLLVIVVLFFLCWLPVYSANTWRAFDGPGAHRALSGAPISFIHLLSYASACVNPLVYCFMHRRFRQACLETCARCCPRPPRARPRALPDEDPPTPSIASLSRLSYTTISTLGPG

[7] = target: T3, Cholecystokinin receptor type A (Homo sapiens, UniProt P32238)
T3 sequence (P32238 whole entry): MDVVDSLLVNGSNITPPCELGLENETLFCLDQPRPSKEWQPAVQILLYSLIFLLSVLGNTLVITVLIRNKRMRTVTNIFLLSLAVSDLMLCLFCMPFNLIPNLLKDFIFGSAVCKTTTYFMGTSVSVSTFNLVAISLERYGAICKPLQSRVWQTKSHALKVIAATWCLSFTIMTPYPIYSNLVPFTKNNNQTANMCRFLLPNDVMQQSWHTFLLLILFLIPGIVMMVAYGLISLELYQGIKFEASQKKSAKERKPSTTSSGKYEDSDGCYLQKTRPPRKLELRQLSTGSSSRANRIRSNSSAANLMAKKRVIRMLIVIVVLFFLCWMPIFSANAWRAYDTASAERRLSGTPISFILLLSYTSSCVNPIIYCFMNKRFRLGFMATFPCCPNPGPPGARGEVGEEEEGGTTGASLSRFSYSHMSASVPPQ

Thromboxane A2 receptor = target: T4, Thromboxane A2 receptor (Homo sapiens, UniProt P21731)
T4 sequence (P21731 whole entry): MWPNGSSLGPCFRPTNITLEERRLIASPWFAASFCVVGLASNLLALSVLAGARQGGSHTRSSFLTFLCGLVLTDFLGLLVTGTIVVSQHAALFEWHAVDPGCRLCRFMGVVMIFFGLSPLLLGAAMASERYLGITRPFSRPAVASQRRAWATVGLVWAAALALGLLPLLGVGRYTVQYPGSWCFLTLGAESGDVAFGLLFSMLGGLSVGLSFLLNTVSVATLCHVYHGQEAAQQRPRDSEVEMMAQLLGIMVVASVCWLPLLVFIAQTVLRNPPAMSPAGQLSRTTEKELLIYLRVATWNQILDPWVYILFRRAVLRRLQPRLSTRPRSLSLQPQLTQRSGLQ

[8] = target: Delta-type opioid receptor (Homo sapiens, UniProt P41143)
Delta-type opioid receptor, sequence (P41143 whole entry): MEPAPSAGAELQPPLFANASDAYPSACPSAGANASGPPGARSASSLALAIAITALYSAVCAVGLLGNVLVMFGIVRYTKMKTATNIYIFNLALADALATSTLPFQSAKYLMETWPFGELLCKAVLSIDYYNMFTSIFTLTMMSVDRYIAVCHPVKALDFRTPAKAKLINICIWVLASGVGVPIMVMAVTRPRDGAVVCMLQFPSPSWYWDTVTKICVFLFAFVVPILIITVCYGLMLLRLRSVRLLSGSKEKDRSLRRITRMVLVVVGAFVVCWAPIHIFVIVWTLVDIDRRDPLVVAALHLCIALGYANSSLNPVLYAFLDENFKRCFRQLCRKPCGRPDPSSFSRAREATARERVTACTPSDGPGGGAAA

Histamine H2 receptor = Histamine H2 receptor (Homo sapiens, UniProt P25021); type: functional, cell-based
Histamine H2 receptor, sequence (P25021 whole entry): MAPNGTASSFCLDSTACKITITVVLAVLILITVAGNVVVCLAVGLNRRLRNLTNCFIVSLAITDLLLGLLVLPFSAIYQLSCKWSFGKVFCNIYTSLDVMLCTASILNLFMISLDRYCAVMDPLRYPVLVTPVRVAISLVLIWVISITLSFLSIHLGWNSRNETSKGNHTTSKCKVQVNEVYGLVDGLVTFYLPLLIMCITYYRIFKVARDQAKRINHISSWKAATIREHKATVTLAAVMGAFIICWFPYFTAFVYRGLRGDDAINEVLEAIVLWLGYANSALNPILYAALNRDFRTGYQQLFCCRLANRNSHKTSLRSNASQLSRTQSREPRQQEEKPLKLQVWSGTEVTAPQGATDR

[9] = target: 5-hydroxytryptamine receptor 2B (Homo sapiens, UniProt P41595); type: functional, cell-based
5-hydroxytryptamine receptor 2B, sequence (P41595 whole entry): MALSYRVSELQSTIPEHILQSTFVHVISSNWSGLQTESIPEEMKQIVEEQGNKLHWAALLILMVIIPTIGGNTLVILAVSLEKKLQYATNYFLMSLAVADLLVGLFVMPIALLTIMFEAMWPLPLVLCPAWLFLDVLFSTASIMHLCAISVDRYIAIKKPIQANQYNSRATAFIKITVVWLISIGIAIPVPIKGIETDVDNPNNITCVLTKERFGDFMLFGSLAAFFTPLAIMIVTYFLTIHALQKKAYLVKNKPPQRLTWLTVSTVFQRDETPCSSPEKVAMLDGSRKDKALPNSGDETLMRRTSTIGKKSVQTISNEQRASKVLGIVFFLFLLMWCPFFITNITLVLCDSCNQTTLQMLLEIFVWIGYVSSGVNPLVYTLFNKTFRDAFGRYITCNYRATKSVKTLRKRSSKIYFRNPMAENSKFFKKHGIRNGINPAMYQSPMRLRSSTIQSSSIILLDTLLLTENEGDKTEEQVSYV

Cannabinoid receptor 1 = Cannabinoid receptor 1 (Homo sapiens, UniProt P21554); type: functional, cell-based
Cannabinoid receptor 1, sequence (P21554 whole entry): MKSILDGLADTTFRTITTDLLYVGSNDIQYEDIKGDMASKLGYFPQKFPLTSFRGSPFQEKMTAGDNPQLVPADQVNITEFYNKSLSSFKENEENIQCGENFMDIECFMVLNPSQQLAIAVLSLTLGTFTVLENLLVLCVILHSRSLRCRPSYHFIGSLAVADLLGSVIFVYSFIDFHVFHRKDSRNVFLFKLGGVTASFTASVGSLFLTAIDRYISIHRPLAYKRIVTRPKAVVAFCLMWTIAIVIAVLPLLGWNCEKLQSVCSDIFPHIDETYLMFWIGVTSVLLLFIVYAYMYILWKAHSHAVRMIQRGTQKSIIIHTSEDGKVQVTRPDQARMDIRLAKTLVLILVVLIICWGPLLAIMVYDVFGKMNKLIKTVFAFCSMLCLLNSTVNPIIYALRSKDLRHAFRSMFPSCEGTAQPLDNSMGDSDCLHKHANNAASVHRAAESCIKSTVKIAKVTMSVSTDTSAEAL

[10] = target: T5, 5-hydroxytryptamine receptor 1A (Homo sapiens, UniProt P08908); type: functional, cell-based
T5 sequence (P08908 whole entry): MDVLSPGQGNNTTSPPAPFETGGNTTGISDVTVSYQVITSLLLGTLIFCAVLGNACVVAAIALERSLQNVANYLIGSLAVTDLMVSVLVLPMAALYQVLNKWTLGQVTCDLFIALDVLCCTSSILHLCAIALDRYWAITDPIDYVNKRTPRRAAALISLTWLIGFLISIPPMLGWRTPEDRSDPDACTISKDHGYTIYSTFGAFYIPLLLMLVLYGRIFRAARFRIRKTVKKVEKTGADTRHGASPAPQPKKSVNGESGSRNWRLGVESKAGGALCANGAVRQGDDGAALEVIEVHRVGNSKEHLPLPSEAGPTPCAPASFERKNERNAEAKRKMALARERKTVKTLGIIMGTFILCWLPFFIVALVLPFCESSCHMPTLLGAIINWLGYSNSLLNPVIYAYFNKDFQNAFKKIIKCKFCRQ
Further: assay procedure not described here.

Adenosine receptor A2a, sequence (P29274 whole entry): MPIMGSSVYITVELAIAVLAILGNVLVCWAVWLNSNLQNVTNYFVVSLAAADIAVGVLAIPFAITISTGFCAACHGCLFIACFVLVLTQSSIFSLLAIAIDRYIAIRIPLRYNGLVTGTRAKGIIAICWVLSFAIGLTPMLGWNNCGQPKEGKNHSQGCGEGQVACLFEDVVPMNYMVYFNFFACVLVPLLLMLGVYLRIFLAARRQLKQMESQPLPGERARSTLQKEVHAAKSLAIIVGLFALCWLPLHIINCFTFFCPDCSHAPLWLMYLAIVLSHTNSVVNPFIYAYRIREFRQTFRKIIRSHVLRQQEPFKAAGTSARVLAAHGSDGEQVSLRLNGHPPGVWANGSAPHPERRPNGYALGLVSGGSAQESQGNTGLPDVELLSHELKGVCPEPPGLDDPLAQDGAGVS
Beta-1 adrenergic receptor, sequence (P08588 whole entry): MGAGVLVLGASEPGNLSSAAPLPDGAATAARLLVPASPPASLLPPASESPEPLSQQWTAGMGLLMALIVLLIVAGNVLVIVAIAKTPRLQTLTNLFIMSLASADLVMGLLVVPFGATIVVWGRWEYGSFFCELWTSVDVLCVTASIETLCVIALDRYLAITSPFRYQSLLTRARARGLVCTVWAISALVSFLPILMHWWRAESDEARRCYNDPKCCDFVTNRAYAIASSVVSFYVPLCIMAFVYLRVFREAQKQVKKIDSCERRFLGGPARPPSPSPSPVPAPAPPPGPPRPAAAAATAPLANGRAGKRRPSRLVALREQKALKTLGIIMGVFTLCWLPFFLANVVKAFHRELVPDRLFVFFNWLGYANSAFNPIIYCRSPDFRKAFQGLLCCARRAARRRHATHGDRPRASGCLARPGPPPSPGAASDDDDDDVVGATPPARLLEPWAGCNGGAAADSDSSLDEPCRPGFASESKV

Compound	AC50 (Adenosine receptor A2a)	AC50 [1]	AC50 [2]	AC50 [3]	AC50 [4]	AC50 [5]	AC50 [6]	AC50 [7]	AC50 (Thromboxane A2 receptor)	AC50 [8]	AC50 (Histamine H2 receptor)	AC50 [9]	AC50 (Cannabinoid receptor 1)	AC50 [10]
N#Cc1ccc([C@H]2CCc3cncn32)c(F)c1 [OSILODROSTAT]	> 10 µM	> 10 µM	> 10 µM	> 10 µM	> 10 µM	> 10 µM	> 10 µM	> 10 µM	> 10 µM	> 10 µM	–	–	–	–
CN1C(=O)OC(C)(C)C1=O [TRIMETHADIONE]	> 10 µM	> 10 µM	> 10 µM	> 30 µM	> 10 µM	> 10 µM	–	> 10 µM	> 10 µM	> 30 µM	> 10 µM	> 10 µM	> 30 µM	–
CC=CC(=O)N(CC)c1ccccc1C	> 10 µM	> 10 µM	> 10 µM	> 30 µM	> 10 µM	> 10 µM	–	> 10 µM	> 10 µM	> 30 µM	> 10 µM	> 10 µM	> 30 µM	–
Cn1c(=O)c2c(ncn2CC2OCCO2)n(C)c1=O [DOXOFYLLINE]	> 30 µM	> 30 µM	> 30 µM	> 30 µM	> 30 µM	> 30 µM	> 30 µM	> 30 µM	> 30 µM	> 30 µM	> 30 µM	> 30 µM	> 30 µM	> 30 µM
CCOC(=O)OC(C)OC1=C(C(=O)Nc2ccccn2)N(C)S(=O)(=O)c2ccccc21 (centres undefined) [AMPIROXICAM]	> 30 µM	> 30 µM	> 30 µM	> 30 µM	> 30 µM	> 30 µM	> 30 µM	> 30 µM	> 30 µM	> 30 µM	> 30 µM	10 µM	> 30 µM	–
O=C(NCCN1CCOCC1)c1ccc(Cl)cc1 [MOCLOBEMIDE]	> 10 µM	> 10 µM	> 10 µM	> 30 µM	> 10 µM	> 10 µM	–	> 10 µM	> 10 µM	> 30 µM	> 10 µM	> 10 µM	–	> 10 µM
NCC[C@H](O)C(=O)N[C@@H]1C[C@H](N)[C@@H](O[C@H]2O[C@H](CN)[C@@H](O)[C@H](O)[C@H]2O)[C@H](O)[C@H]1O[C@H]1O[C@H](CO)[C@@H](O)[C@H](N)[C@H]1O [AMIKACIN]	> 10 µM	> 10 µM	> 10 µM	> 30 µM	> 10 µM	> 10 µM	–	> 10 µM	> 10 µM	> 30 µM	> 10 µM	> 10 µM	–	> 10 µM
Nc1nc(N)nc(-c2cc(Cl)ccc2Cl)n1 [IRSOGLADINE]	> 30 µM	> 30 µM	–	> 30 µM	> 30 µM	> 30 µM	> 30 µM	> 30 µM	> 30 µM	–	> 30 µM	22 µM	> 30 µM	–
CC(=O)O[C@H]1C[C@@H]2CC[C@@H]3[C@H](CC[C@@]4(C)[C@H]3C[C@H]([N+]3(C)CCCCC3)[C@@H]4OC(C)=O)[C@@]2(C)C[C@@H]1N1CCCCC1 [VECURONIUM]	> 30 µM	> 30 µM	> 30 µM	> 30 µM	> 30 µM	> 30 µM	> 30 µM	> 30 µM	> 30 µM	> 30 µM	> 30 µM	> 30 µM	> 30 µM	–
C[C@](N)(Cc1ccc(O)c(O)c1)C(=O)O [METHYLDOPA]	> 30 µM	> 10 µM	> 10 µM	> 30 µM	> 10 µM	> 10 µM	–	> 10 µM	> 10 µM	> 30 µM	> 30 µM	> 10 µM	–	> 10 µM
C#C[C@]1(O)CC[C@H]2[C@@H]3CCC4=Cc5oncc5C[C@]4(C)[C@H]3CC[C@@]21C [DANAZOL]	> 30 µM	> 10 µM	> 10 µM	–	> 10 µM	> 10 µM	–	> 10 µM	> 10 µM	> 30 µM	> 10 µM	> 10 µM	> 30 µM	> 10 µM
Cc1ccc(S(=O)(=O)NC(=O)NN2CC3CCCC3C2)cc1 (centres undefined) [GLICLAZIDE]	> 10 µM	> 10 µM	> 10 µM	> 30 µM	> 10 µM	> 10 µM	–	> 10 µM	> 10 µM	> 30 µM	> 30 µM	> 10 µM	–	> 10 µM
C[C@]12CC[C@H]3[C@@H](CCC4=CC(=O)CC[C@@]43C)[C@@H]1CC[C@@H]2O [TESTOSTERONE]	> 10 µM	> 10 µM	> 10 µM	> 30 µM	> 10 µM	> 10 µM	–	> 10 µM	> 10 µM	> 30 µM	> 30 µM	> 10 µM	–	> 10 µM
CNS(=O)(=O)Cc1ccc2[nH]cc(CCN(C)C)c2c1	> 30 µM	> 10 µM	> 30 µM	> 30 µM	> 30 µM	> 30 µM	> 30 µM	> 30 µM	> 30 µM	> 30 µM	> 30 µM	> 10 µM	> 30 µM	–
CC(C)Cn1cnc2c(N)nc3ccccc3c21 [IMIQUIMOD]	19.5 µM	> 10 µM	> 10 µM	> 30 µM	> 10 µM	> 10 µM	–	> 10 µM	> 30 µM	> 30 µM	> 10 µM	13.8 µM	–	> 10 µM
CCCN(CCC)C(=O)C(CCC(=O)O)NC(=O)c1ccccc1 (centres undefined) [PROGLUMIDE]	> 30 µM	> 30 µM	> 10 µM	> 30 µM	> 30 µM	> 30 µM	–	> 30 µM	> 30 µM	> 30 µM	> 30 µM	> 10 µM	–	> 10 µM
